# Literature values as cited in PubChem BioAssay AID1259409 (Chemical Carcinogenesis Research Information System (CCRIS), 2018).
# Tested on: rodent chemically induced tumor inhibition, incidence and multiplicity
# Experiment: CCRIS tumor inhibitor studies
# Settings: Carcinogen: N-METHYL-N-NITROSOUREA, 684-93-5, Route [Inhibitor]: ORAL, Species: RAT, Promoter: NONE USED
smiles,measurement,setting,value
CC1=C(/C=C/C(C)=C/C=C/C(C)=C/C(=O)Nc2ccc(O)cc2)C(C)(C)CCC1,"tumour outcome (control, treated, inhibition, significance)","Dose [Inhibitor]: 0, 782 MG/KG OF GRAIN-BASED WAYNE DIET FOR DURATION OF STUDY BEGINNING 7 D POST CARCINOGEN DOSE (STUDY DURATION: 25 WK), Strain/Sex: F344/FEMALE, Target Tissue: Type of Lesion: MAMMARY GLAND: TUMOR, Dose [Carcinogen]: 45 MG/KG BW ONCE AT 50 D OF AGE","9/25 (36%), 6/25 (24%), 33%, not significant"
same,"tumour outcome (control, treated, inhibition, significance)","Dose [Inhibitor]: 0, 782 MG/KG OF GRAIN-BASED WAYNE DIET FOR DURATION OF STUDY BEGINNING 7 D PRIOR TO CARCINOGEN DOSE (STUDY DURATION: 26, Strain/Sex: F344/FEMALE, Target Tissue: Type of Lesion: MAMMARY GLAND: TUMOR, Dose [Carcinogen]: 45 MG/KG BW ONCE AT 50 D OF AGE","9/25 (36%), 5/25 (20%), 44%, not significant"
same,"tumour outcome (control, treated, inhibition, significance)","Dose [Inhibitor]: 0, 786 MG/KG IN DIET FOR 26 WK BEGINNING 4 WK POST CARCINOGEN DOSE (STUDY DURATION: 31 WK), Strain/Sex: SPRAGUE-DAWLEY/FEMALE, Target Tissue: Type of Lesion: MAMMARY GLAND: ADENOCARCINOMA, Dose [Carcinogen]: 50 MG/KG ONCE","84%, 74%, 12%, not significant"
same,"tumour outcome (control, treated, inhibition, significance)","Dose [Inhibitor]: 0, 786 MG/KG IN DIET FOR 31 WK BEGINNING 1 WK PRIOR TO CARCINOGEN DOSE (STUDY DURATION: 31 WK), Strain/Sex: SPRAGUE-DAWLEY/FEMALE, Target Tissue: Type of Lesion: MAMMARY GLAND: ADENOCARCINOMA, Dose [Carcinogen]: 50 MG/KG ONCE","84%, 71%, 15%, not significant"
same,"tumour outcome (control, treated, inhibition, significance)","Dose [Inhibitor]: 0, 1173 MG/KG DIET BEGINNING AFTER THE SURGICAL REMOVAL OF THE FIRST PALPABLE TUMOR (STUDY DURATION: LIFETIME), Strain/Sex: SPRAGUE-DAWLEY/FEMALE, Target Tissue: Type of Lesion: MAMMARY GLAND: TUMOR, Dose [Carcinogen]: 35 MG/KG ONCE AT 50 DAYS OF AGE","93%, 88%, 5%, not calculated"
same,"tumour outcome (control, treated, inhibition, significance)","Dose [Inhibitor]: 1 MMOL/KG DIET DAILY STARTING 3 D AFTER LAST CARCINOGEN DOSE THROUGH END OF STUDY (STUDY DURATION: 129 D), Strain/Sex: SPRAGUE-DAWLEY/FEMALE, Target Tissue: Type of Lesion: MAMMARY GLAND: TUMOR, Dose [Carcinogen]: 50 MG/KG BW AT BOTH 50 AND 57 D OF AGE","17/17 (100%), 12/15 (80%), 20%, not significant"
same,"tumour outcome (control, treated, inhibition, significance)","Dose [Inhibitor]: 1 MMOL/KG DIET DAILY STARTING 3 D AFTER LAST CARCINOGEN DOSE THROUGH END OF STUDY (STUDY DURATION: 182 D), Strain/Sex: SPRAGUE-DAWLEY/FEMALE, Target Tissue: Type of Lesion: MAMMARY GLAND: TUMOR, Dose [Carcinogen]: 15 MG/KG BW AT BOTH 50 AND 57 D OF AGE","12/40 (30%), 12/40 (30%), 0%, not significant"
same,"tumour outcome (control, treated, inhibition, significance)","Dose [Inhibitor]: 2 MMOL/KG DIET DAILY FROM 2 D PRIOR THROUGH 12 WK AFTER CARCINOGEN DOSE FOLLOWED BY 16 WK OBSERVATION PERIOD (STUDY DURA, Strain/Sex: SPRAGUE-DAWLEY/FEMALE, Target Tissue: Type of Lesion: MAMMARY GLAND: TUMOR, Dose [Carcinogen]: 25 MG/KG BW ONCE","18/21 (86%), 15/30 (50%), 42%, p 0.027"
same,"tumour outcome (control, treated, inhibition, significance)","Dose [Inhibitor]: 2 MMOL/KG DIET DAILY FROM 2 D THROUGH 17 WK AFTER CARCINOGEN DOSE FOLLOWED BY 11 WK OBSERVATION PERIOD (STUDY DURATION:, Strain/Sex: SPRAGUE-DAWLEY/FEMALE, Target Tissue: Type of Lesion: MAMMARY GLAND: TUMOR, Dose [Carcinogen]: 25 MG/KG BW ONCE","18/21 (86%), 18/30 (60%), 30%, not significant"
same,"tumour outcome (control, treated, inhibition, significance)","Dose [Inhibitor]: 2 MMOL/KG DIET DAILY STARTING 3 D AFTER LAST CARCINOGEN DOSE THROUGH END OF STUDY (STUDY DURATION: 129 D), Strain/Sex: SPRAGUE-DAWLEY/FEMALE, Target Tissue: Type of Lesion: MAMMARY GLAND: TUMOR, Dose [Carcinogen]: 50 MG/KG BW AT BOTH 50 AND 57 D OF AGE","17/17 (100%), 11/17 (65%), 35%, p<0.01"
same,"tumour outcome (control, treated, inhibition, significance)","Dose [Inhibitor]: 2 MMOL/KG DIET DAILY STARTING 3 D AFTER LAST CARCINOGEN DOSE THROUGH END OF STUDY (STUDY DURATION: 182 D), Strain/Sex: SPRAGUE-DAWLEY/FEMALE, Target Tissue: Type of Lesion: MAMMARY GLAND: TUMOR, Dose [Carcinogen]: 15 MG/KG BW AT BOTH 50 AND 57 D OF AGE","12/40 (30%), 6/40 (15%), 50%, not significant"
same,"tumour outcome (control, treated, inhibition, significance)","Dose [Inhibitor]: 2 MMOL/KG DIET DAILY STARTING 12 D AFTER CARCINOGEN TREATMENT THROUGH ABOUT 8 MO AFTER CARCINOGEN DOSE (STUDY DURATION:, Strain/Sex: F344/MALE, Target Tissue: Type of Lesion: COLON: ADENOCARCINOMA, Dose [Carcinogen]: 2.5 MG 1/WK FOR 2 WK","5/39 (13%), 3/30 (10%), 23%, not significant"
